Read-outs that look alike come from different tables or passages of the source.
Legend:
[1] = Stability in pH2 buffered solution; type: physicochemical; settings: pH2 phosphate buffer, 40° C.; for pH 2 Stability 24 h % AN: Table N2
Summary of the method: (§1)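 UPLC % area-normalized compound peak tracked over 24 hrs at 40° C. (0, 3, 6, 9, 12 and 24 hrs). Samples at 50 μg/mL, prepared from 1 mg/mL acetonitrile stock, in pH2 or pH7 50 mM phosphate/150 mM NaCl buffer.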

[2] = CC50 MT4 cytotoxicity (Cell-Titer Glo); type: cell-based; settings: human
Summary of the method: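 CC50 values are the concentrations cutting viability by 50%, fitted by non-linear regression against untreated (100%) and 2 μM puromycin (0%) controls. Cell-Titer Glo luminescence measured after 4-5 days at 37° C exposure of uninfected MT-4 and HEp-2 cells to 3-fold dilutions spanning 15 nM to 100,000 nM.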

[3] = Stability in pH7 buffered solution; type: physicochemical; settings: pH7 phosphate buffer, 40° C., Table N2
Summary of the method: as §1

[4] = test system: SARS Coronavirus 2 recombinant with NanoLuc (SARS-CoV2-NLuc) in A549-hACE2 cells; experiment: organism not typed; type: cell-based
[5] = test system: Caco-2 cells (clone C2BBe1); experiment: CACO-2 permeability; type: in vitro ADME; design: unit not given here; settings: for DM Caco2 A to B: apical to basolateral, donor pH 6.5, receiver pH 7.4; for DM Caco2 B to A: basolateral to apical
Summary of the method: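 A-to-B and B-to-A flux measured by LC-MS/MS from receiver samples taken at 1 and 2 h, with donor sampled at 0 and 2 h and recovery checked. Buffers: pH 6.5 HBSS with 200 μM BNPP on the donor side, pH 7.4 with BSA on the receiver side. Monolayers were 21-day cultures, TEER-verified, in duplicate wells.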

[6] = test system: Respiratory syncytial virus recombinant with luciferase (RSV-Luc5) in Normal Human Bronchial Epithelial (NHBE) cells; experiment: microbe, parasite or virus in culture; type: cell-based
[7] = Thermodynamic solubility in pH7 buffered solution; settings: 50 mM phosphate buffer pH7, 150 mM NaCl, ambient temperature, 24 hours
Summary of the method: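 Solid shaken 24 h at ambient temperature in 50 mM phosphate buffer pH7 with 150 mM NaCl. Supernatant diluted in 30:70 acetonitrile:water and quantified by UPLC-UV.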

Plasma stability = type: in vitro ADME; design: unit not given here; settings: 37° C., 2 μM substrate
Summary of the method: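 LC-MS (Q-Exactive, 5 ppm tolerance, 0.1% formic acid water/acetonitrile gradient) quantified compound in quenched aliquots. Aliquots were taken at 0.05, 0.5, 1, 2, 3 and 4 hr and quenched with internal-standard solution, and supernatants were diluted with water after centrifugation.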

SMILES | Stability at pH2, 0 hr [1] | Stability at pH2, 3 hr [1] | Stability at pH2, 6 hr [1] | Stability at pH2, 9 hr [1] | Stability at pH2, 12 hr [1] | pH 2 Stability 24 h % AN [1] | Stability at pH2, 24 hr [1] | CC50 [2] | pH 7 Stability 24 h % AN [3] | EC50 ([4]; 48 h, read-out: SARS-CoV2 EC50) | DM Caco2 A to B [5] | DM Caco2 B to A [5] | EC50 ([6]; 72 h, read-out: RSV NHBE EC50) | Sol pH 7 [7] | STA Human Plasma 37 (Plasma stability) | EC50 ([4]; A549, read-out: EC50 SARS CoV2 NanoLuc A549 384) | EC50 ([6]; read-out: EC50 RSVFluc-NHBE 384 V2)
COC(=O)OC[C@H]1O[C@@](C#N)(c2ccc3c(N)ncnn23)[C@H](OC(C)=O)[C@@H]1OC(C)=O [Compound 128, (2R,3R,4R,5R)-2-(4-aminopyrrolo[2,1-f][1,2,4]triazin-7-yl)-2-cyano-5-(((methoxycarbonyl)oxy)methyl)tetrahydrofuran-3,4-diyl diacetate] | 100.0 % AN | 98.3 % AN | 96.7 % AN | 95.2 % AN | 93.8 % AN | 89 % AN | 89.3 % AN | > 50 µM | 78 % AN | 7.23 µM | 3.35 | 5.69 | 2.04 µM | 1.42 | 9.735 | – | –
CCOC(=O)OC[C@H]1O[C@@](C#N)(c2ccc3c(N)ncnn23)[C@H](OC(C)=O)[C@@H]1OC(C)=O [Compound 129, (2R,3R,4R,5R)-2-(4-aminopyrrolo[2,1-f][1,2,4]triazin-7-yl)-2-cyano-5-(((ethoxycarbonyl)oxy)methyl)tetrahydrofuran-3,4-diyl diacetate] | 100.0 % AN | 98.4 % AN | 96.9 % AN | 95.5 % AN | 94.0 % AN | 89 % AN | 89.4 % AN | > 50 µM | 78 % AN | 5.83 µM | 3.505 | 6.635 | 0.673 µM | 0.72 | 3 | – | –
CC(C)OC(=O)Nc1ncnn2c([C@]3(C#N)O[C@H](COC(=O)OC(C)C)[C@@H](O)[C@H]3O)ccc12 [Compound 137, isopropyl (7-((2R,3R,4S,5R)-2-cyano-3,4-dihydroxy-5-(((isopropoxycarbonyl)oxy)methyl)tetrahydrofuran-2-yl)pyrrolo[2, i-f][1,2,4]triazin-4-yl)carbamate] | – | – | – | – | – | 80 % AN | – | > 50 µM | 97 % AN | – | 0.98 | 11.37 | – | 0.13 | 676.3 | > 50 µM | 9.52 µM

From patent publication US12448383B2, “Compounds and methods for treatment of viral infections” (priority 2022, dated 2025)
